Reference: paper PMC6211316, “Synthesis and biological evaluation of 3-arylcoumarin derivatives as potential anti-diabetic agents” (Journal of Enzyme Inhibition and Medicinal Chemistry, 2018)

What was measured:
[1] = DPPH free radical scavenging; details: mean ± SD (n = 3)
Method in brief: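 Sample solutions at various concentrations mixed 1:1 with DPPH (0.04 mg/mL) and reacted 30 min at room temperature; absorbance read at 517 nm against ethanol blank, corrected for sample absorbance. Scavenging % calculated versus DPPH alone, triplicate measurements, IC50 derived.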

α-Glucosidase = target: T1, α-Glucosidase (Saccharomyces cerevisiae, UniProt P53341); experiment: biochemical; format: biochemical; details: for α-glucosidase inhibitory activity (in words): in vitro; for IC50: mean ± SD (n = 3), read-out: α-Glucosidase inhibitory activity IC50 Value
T1 construct: purchased Sigma Aldrich G0660-750UN
T1 sequence (P53341 whole entry): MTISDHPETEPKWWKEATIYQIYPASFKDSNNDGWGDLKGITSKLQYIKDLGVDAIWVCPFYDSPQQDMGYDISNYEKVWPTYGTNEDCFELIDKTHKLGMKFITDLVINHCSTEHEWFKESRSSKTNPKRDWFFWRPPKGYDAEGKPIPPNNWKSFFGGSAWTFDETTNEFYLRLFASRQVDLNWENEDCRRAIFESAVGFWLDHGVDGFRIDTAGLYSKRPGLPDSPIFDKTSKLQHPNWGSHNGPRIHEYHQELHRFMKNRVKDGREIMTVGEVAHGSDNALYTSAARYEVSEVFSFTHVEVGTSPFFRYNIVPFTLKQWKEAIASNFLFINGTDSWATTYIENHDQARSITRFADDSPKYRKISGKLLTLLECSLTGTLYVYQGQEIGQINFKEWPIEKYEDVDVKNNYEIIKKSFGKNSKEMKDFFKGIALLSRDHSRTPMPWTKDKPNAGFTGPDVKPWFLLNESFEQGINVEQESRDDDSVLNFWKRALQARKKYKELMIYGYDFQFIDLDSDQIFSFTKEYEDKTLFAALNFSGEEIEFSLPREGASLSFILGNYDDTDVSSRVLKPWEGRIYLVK
Method in brief: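 Absorbance at 405 nm of released p-nitrophenol gave % inhibition, corrected for blank and sample-blank wells, and IC50 values, all in triplicate. Reactions combined yeast enzyme, PNPG and test compound in pH 6.8 phosphate buffer (100 mM) at 37 °C for 20 min following a 10-min preincubation, ended with Na2CO3.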

AGEs formation = experiment: In vitro inhibitory activity of AGEs formation (bovine serum albumin/glucose); format: biochemical; details: mean ± SD (n = 3)
Method in brief: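 Bovine serum albumin (10 mg/mL) with 0.2 M glucose in 50 mM PBS, pH 7.4, plus 0.02% sodium azide, was mixed with compound solutions (0.5–1000 μg/mL in DMSO) and held 14 d at 37 °C. AGE fluorescence was read at ex 350/em 420 nm in triplicate. Inhibition was corrected with glucose-free blanks, and IC50 calculated.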

STZ-diabetic mice = experiment: Acute hypoglycemic assay in STZ-diabetic mice; format: in vivo; details: STZ-diabetics mice
Procedure: Type II diabetes mellitus was induced in mice by a single intraperitoneal injection of freshly prepared STZ (Sigma Aldrich) dissolved in 0.1M citrate buffer, pH 4.5, in a volume of 110 mg/kg of bw. After 7 days of STZ administration, blood glucose levels of each mouse were determined. Mice with blood glucose levels higher than 11 mM were considered diabetic and were included in the study.
STZ-induced diabetic mice and normal mice were placed in single cages with wire-net floors and deprived of food for 12 h before experimentation but allowed free access to tap water throughout. The compounds (at the doses of 10, 30, and 100 mg/kg of bw) were suspended in 0.05% Tween-80 in saline solution. Glibenclamide (10 mg/kg of bw) was suspended in the same vehicle. The target compounds were freshly prepared immediately before experimentation and administered by the intragastrical route at the doses of 10 ml/kg of bw. Control mice received only the vehicle (0.05% Tween-80 in saline solution) by the same route. Blood glucose levels were measured at 0, 1.5, 3, 5, 7, and 9 h after drugs administration.

## Cc1ccc(-c2cc3c(O)cc(O)cc3oc2=O)cc1 [Compound 25, 5,7-Dihydroxy-3-(4-methylphenyl)-coumarin]
[1]
  IC50: 603 ± 7.42 µM
α-Glucosidase
  α-glucosidase inhibitory activity (in words): moderate to excellent inhibitory activity
  IC50: 11.5 ± 0.37 µM
AGEs formation
  IC50: 45.8 ± 1.27 µM
STZ-diabetic mice; 10 mg/kg of bw per os, 0h
  Blood glucose concentration: 19.7 ± 6.1 mM
STZ-diabetic mice; 10 mg/kg of bw per os, 1.5h
  % Variation of glycemia: (−20.30) %
  Blood glucose concentration: 15.7 ± 6.6 mM
STZ-diabetic mice; 10 mg/kg of bw per os, 3h
  % Variation of glycemia: (−24.37) %
  Blood glucose concentration: 14.9 ± 6.5 mM
STZ-diabetic mice; 10 mg/kg of bw per os, 5h
  % Variation of glycemia: (−50.76) %
  Blood glucose concentration: 9.7 ± 3.4 mM
STZ-diabetic mice; 10 mg/kg of bw per os, 7h
  % Variation of glycemia: (−64.97) %
  Blood glucose concentration: 6.9 ± 3.9 mM
STZ-diabetic mice; 10 mg/kg of bw per os, 9h
  % Variation of glycemia: (−56.85) %
  Blood glucose concentration: 8.5 ± 2.2 mM
STZ-diabetic mice; 30 mg/kg of bw per os, 0h
  Blood glucose concentration: 24.8 ± 4.9 mM
STZ-diabetic mice; 30 mg/kg of bw per os, 1.5h
  % Variation of glycemia: (−12.50) %
  Blood glucose concentration: 21.7 ± 3.9 mM
STZ-diabetic mice; 30 mg/kg of bw per os, 3h
  % Variation of glycemia: (−36.23) %
  Blood glucose concentration: 15.8 ± 4.5 mM
STZ-diabetic mice; 30 mg/kg of bw per os, 5h
  % Variation of glycemia: (−64.11) %
  Blood glucose concentration: 8.9 ± 6.3 mM
STZ-diabetic mice; 30 mg/kg of bw per os, 7h
  % Variation of glycemia: (−63.71) %
  Blood glucose concentration: 9.0 ± 4.8 mM
STZ-diabetic mice; 30 mg/kg of bw per os, 9h
  % Variation of glycemia: (−64.11) %
  Blood glucose concentration: 8.9 ± 3.8 mM
STZ-diabetic mice; 100 mg/kg of bw per os, 0h
  Blood glucose concentration: 23.0 ± 4.8 mM
STZ-diabetic mice; 100 mg/kg of bw per os, 1.5h
  % Variation of glycemia: (−20.44) %
  Blood glucose concentration: 18.3 ± 3.5 mM
STZ-diabetic mice; 100 mg/kg of bw per os, 3h
  % Variation of glycemia: (−25.36) %
  Blood glucose concentration: 17.2 ± 2.9 mM
STZ-diabetic mice; 100 mg/kg of bw per os, 5h
  % Variation of glycemia: (−56.95) %
  Blood glucose concentration: 9.9 ± 2.7 mM
STZ-diabetic mice; 100 mg/kg of bw per os, 7h
  % Variation of glycemia: (−64.78) %
  Blood glucose concentration: 8.1 ± 1.6 mM
STZ-diabetic mice; 100 mg/kg of bw per os, 9h
  % Variation of glycemia: (−60.43) %
  Blood glucose concentration: 9.1 ± 2.3 mM

## Cc1ccccc1-c1cc2ccc(O)cc2oc1=O [Compound 11, 7-Hydroxy-3-(2-methylphenyl)-coumarin]
[1]
  IC50: 564.2 ± 5.2 µM
α-Glucosidase
  α-glucosidase inhibitory activity (in words): moderate to excellent inhibitory activity
  IC50: 16.4 ± 1.23 µM
AGEs formation
  IC50: > 1000 µM
STZ-diabetic mice; 10 mg/kg of bw per os, 0h
  Blood glucose concentration: 24.9 ± 4.1 mM
STZ-diabetic mice; 10 mg/kg of bw per os, 1.5h
  % Variation of glycemia: (−17.27) %
  Blood glucose concentration: 20.6 ± 5.9 mM
STZ-diabetic mice; 10 mg/kg of bw per os, 3h
  % Variation of glycemia: (−37.75) %
  Blood glucose concentration: 15.5 ± 8.5 mM
STZ-diabetic mice; 10 mg/kg of bw per os, 5h
  % Variation of glycemia: (−48.59) %
  Blood glucose concentration: 12.8 ± 10.4 mM
STZ-diabetic mice; 10 mg/kg of bw per os, 7h
  % Variation of glycemia: (−54.22) %
  Blood glucose concentration: 11.4 ± 8.2 mM
STZ-diabetic mice; 10 mg/kg of bw per os, 9h
  % Variation of glycemia: (−52.21) %
  Blood glucose concentration: 11.9 ± 8.5 mM
STZ-diabetic mice; 30 mg/kg of bw per os, 0h
  Blood glucose concentration: 25.3 ± 6.3 mM
STZ-diabetic mice; 30 mg/kg of bw per os, 1.5h
  % Variation of glycemia: (−20.95) %
  Blood glucose concentration: 20.0 ± 6.3 mM
STZ-diabetic mice; 30 mg/kg of bw per os, 3h
  % Variation of glycemia: (−34.78) %
  Blood glucose concentration: 16.5 ± 6.4 mM
STZ-diabetic mice; 30 mg/kg of bw per os, 5h
  % Variation of glycemia: (−55.41) %
  Blood glucose concentration: 11.3 ± 4.0 mM
STZ-diabetic mice; 30 mg/kg of bw per os, 7h
  % Variation of glycemia: (−62.40) %
  Blood glucose concentration: 9.5 ± 3.9 mM
STZ-diabetic mice; 30 mg/kg of bw per os, 9h
  % Variation of glycemia: (−68.14) %
  Blood glucose concentration: 8.1 ± 4.2 mM
STZ-diabetic mice; 100 mg/kg of bw per os, 0h
  Blood glucose concentration: 23.5 ± 5.4 mM
STZ-diabetic mice; 100 mg/kg of bw per os, 1.5h
  % Variation of glycemia: (−21.88) %
  Blood glucose concentration: 18.3 ± 3.9 mM
STZ-diabetic mice; 100 mg/kg of bw per os, 3h
  % Variation of glycemia: (−34.89) %
  Blood glucose concentration: 15.3 ± 3.9 mM
STZ-diabetic mice; 100 mg/kg of bw per os, 5h
  % Variation of glycemia: (−52.76) %
  Blood glucose concentration: 11.1 ± 4.4 mM
STZ-diabetic mice; 100 mg/kg of bw per os, 7h
  % Variation of glycemia: (−62.21) %
  Blood glucose concentration: 8.9 ± 2.8 mM
STZ-diabetic mice; 100 mg/kg of bw per os, 9h
  % Variation of glycemia: (−65.27) %
  Blood glucose concentration: 8.2 ± 2.6 mM
